Data: US20080306007A1, “AGENTS FOR PROPHYLAXIS OR TREATMENT OF NEUROLOGICAL RELATED DISEASES AND CONDITIONS” (Newcastle Innovation Limited, priority 2007, published 2008)

Assays:
U2OS cells = test: Transferrin (Tfn) endocytosis (RME) in U2OS cells; format: cell-based; conditions: 15 min peptide preincubation at various concentrations, Tfn 15 min at 37° C.
Description: Briefly, non-neuronal U2OS cells were preincubated with vehicle only or each peptide at various concentrations for 15 min. Cells were then incubated with Tfn for 15 min at 37° C., acid washed, fixed and internalized Tfn was detected by fluorescence microscopy. Quantitative analysis of endocytosis in the presence of different concentrations of the peptides is shown as mean fluorescence as a percent of fluorescence in control cells. The results shown in FIG. 11 are representative of 2 independent experiments. Endocytosis in control cells (no peptide) is expressed as 100%.

[1] = tested on: synaptosomes (SV exocytosis); test: FM2-10 unloading (SV exocytosis) assay in synaptosomes; format: cell-based, rat; conditions: evoked by 30 mM KCl; peptide preincubated 30 min before unloading
Description: (§1) Loading of FM2-10 (Molecular Probes) into recycling synaptosomal SVs was measured as previously described. Data is presented as Ca^2+-dependent FM2-10 unloading, which is the difference between release after loading in plus and minus Ca^2+ solutions. Where indicated, synaptosomes were preincubated with penetratin peptide for 30 min prior to stimulation of FM2-10 loading. […] The same assay was used to monitor the effect of penetratin peptide on SV exocytosis. However, in this instance, the synaptosomes were loaded with FM2-10 in plus Ca^2+ Krebs-like solution and, where indicated, were preincubated with penetratin peptide for 30 min prior to stimulation of FM2-10 unloading. Data is presented as Ca^2+-dependent FM2-10 unloading. The SV internalisation assay was performed as previously described.
A block in SV turnover cannot be ascribed to an inhibition of SVE until an effect on exocytosis has been excluded. Two independent exocytosis assays were conducted to assess this: endogenous glutamate release and FM2-10 unloading. […] Finally, the extent of SVE inhibition by the peptides was quantified by calculating “retrieval efficiency” which takes into account prior exocytosis; a value of less than one indicating a selective SVE inhibition. […]

[2] = tested on: synaptosomes (SV retrieval from the plasma membrane); test: FM2-10 SV internalisation assay (purified SVs from synaptosomes); format: cell-based, rat
Description: as §1
If SVE was arrested before SV fission occurred, […]. SVs were purified and their fluorescence values were corrected for dye uptake in the absence of Ca^2+ (Ca^2+-dependent) and normalised to control (n=3, mean ±s.e.m.).

amphiphysin I = molecular target: T1, amphiphysin I (Rattus norvegicus, UniProt O08838); test: Elution of amphiphysin I from immunoprecipitated complex by peptide; format: binding; conditions: data not shown
T1 construct: Syndapin I or dynamin I were immunoprecipitated from nerve terminals; from tissue; host or cells: rat brain crude (P2) synaptosomes
T1 sequence (O08838 1-683): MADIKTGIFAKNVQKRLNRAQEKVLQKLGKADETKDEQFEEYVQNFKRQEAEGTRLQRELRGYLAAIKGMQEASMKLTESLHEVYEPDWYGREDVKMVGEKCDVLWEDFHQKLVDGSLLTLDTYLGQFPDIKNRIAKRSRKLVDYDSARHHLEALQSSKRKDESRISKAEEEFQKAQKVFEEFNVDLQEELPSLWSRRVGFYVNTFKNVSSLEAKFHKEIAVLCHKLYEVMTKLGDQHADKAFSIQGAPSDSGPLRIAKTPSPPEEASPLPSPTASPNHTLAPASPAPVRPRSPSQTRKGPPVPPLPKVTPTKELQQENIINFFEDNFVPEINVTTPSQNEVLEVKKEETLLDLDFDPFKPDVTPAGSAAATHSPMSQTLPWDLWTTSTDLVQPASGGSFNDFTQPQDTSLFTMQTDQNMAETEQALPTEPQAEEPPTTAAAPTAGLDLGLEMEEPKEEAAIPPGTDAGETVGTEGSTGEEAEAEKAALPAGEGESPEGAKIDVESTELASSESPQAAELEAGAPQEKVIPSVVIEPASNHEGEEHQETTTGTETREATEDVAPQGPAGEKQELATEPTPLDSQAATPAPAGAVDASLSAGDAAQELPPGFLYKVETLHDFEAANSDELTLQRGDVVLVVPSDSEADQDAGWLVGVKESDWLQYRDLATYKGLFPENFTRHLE
Description: To determine whether the phospho-box sequence might account for syndapin I recruitment to dynamin I, the ability of a DynI769-784AA peptide (FIG. 5a) to disrupt their interaction was tested. Syndapin I or dynamin I were immunoprecipitated from nerve terminals and the individual protein complexes were incubated with DynI769-784AA (SEQ ID No. 8) peptide (see below). Their interaction in both cases was reduced by the peptide, as indicated by the specific release of either binding partner from the bead-bound complex (FIG. 4c). No elution of endophilin I (FIG. 4c) or amphiphysin I (data not shown) was detected, highlighting the specificity of the interaction.
Crude (P2) synaptosomes were prepared from rat brain and lysed as described in Example 1.1.3. Synaptosome lysates were incubated with 5 μg of anti-syndapin I or […] pre-bound to protein G-sepharose (Roche) for 3 h at 4° C. Beads were washed with ice-cold PBS, eluted in SDS-PAGE sample buffer and blotted with anti-syndapin I, anti-endophilin I and anti-dynamin I antibodies.

[3] = tested on: synaptosomes (glutamate release); test: 4-AP evoked glutamate release (repetitive stimulation) in synaptosomes; format: cell-based, rat; conditions: 4-AP 1 mM
Description: In all SV recycling studies synaptosomes were prepared from rat cerebral cortex by centrifugation on discontinuous percoll gradients (Dunkley et al. 1986). The glutamate release assay was performed as described before (Cousin and Robinson 2000a). Data is presented as Ca^2+-dependent glutamate release, calculated as the difference between release in plus and minus Ca^2+ solutions. Penetratin peptides (Genemed Synthesis) were preincubated with the synaptosomes for 30 min before stimulation and had no effect on Ca^2+-independent release of glutamate.
Selective inhibition of SVE by the phospho-box peptide should produce a rundown or fatigue of glutamate release after repeated stimuli, since the supply of SVs will progressively decline. To produce repetitive stimulation in synaptosomes the K^+ channel blocker 4-aminopyridine (4-AP) was used. This produces a tetrodotoxin-sensitive repetitive firing that mimics in vivo stimulation. It has previously been reported that 4-AP evokes continual SV recycling for at least 15 minutes in synaptosomes. […] The inset is also zoomed on the first 3 min from 4-AP addition (which was at 60 s) to highlight the lack of effect during the first 45s.

elution of amphiphysin I from complex (amphiphysin I): No elution
Substance: DynI769-784AA: Dynamin I phospho-box mimetic peptide (residues 769-784), AA mutant, tagged with penetratin heptapeptide RRMKWKK (RRMKWKKPAGRRAPTSAPTPQRR; listed as Rattus norvegicus)
endocytosis of transferrin (Tfn), RME (U2OS cells): without effect
FM2-10 unloading [1]: 81.1±0.8 % of control
inhibition of FM2-10 accumulation in SVs [2]: approximately 35%
FM2-10 accumulation in purified SVs (Ca2+-dependent) ([2]; n=3, mean ± s.e.m.): 64.9±5.5 % of control
effect on the first 45 sec of 4-AP evoked exocytosis ([3]; first 45 sec): without effect
effect on 4-AP evoked glutamate release with continued stimulation ([3]; repetitive stimulation): activity-dependent depression of release that increased with continued stimulation
